Where two headings read alike, the source gives them in different places.
What was measured:
[1] = test system: Human T cell lymphoma (MOLT-4) cells; experiment: In vitro drug pretreatment of encapsulated cells, then growth in the peritoneal cavity of mice; format: in vivo
Experimental: The encapsulated tumors are preferably incubated at 37° C in medium for 1 to 2 hours. A 25 percent (v/v) suspension can then be prepared (preferably without bovine serum). The suspension can be inoculated in the peritoneal cavity of the host animal (i.e., with a 16 gauge needle).
(§1) In the experiments that follow, the drugs and other agents tested were administered to the host animal by injection at the various times called for in the protocol being tested. At various periods after treatment, the mice were killed by cervical dislocation. The peritoneal cavity of each mouse was washed with PBS or medium and floating microcapsules were aspirated using a large bore plastic Pasteur pipette. Microcapsules were transferred to 15 ml tubes and washed 3 to 4 times with PBS to remove host peritoneal cells. The washed microcapsules were aspirated into 1 ml serological pipettes, allowed to sediment, and the volume of packed microcapsules was determined. Microcapsules were then transferred to a glas dounce homogenizer (7 ml volume) and disrupted with 3 strokes of an A-tolerance plumger. Cells suspensions were filtered through nylon mesh to remove the disrupted membranes. The suspensions containing tumor cells were centrifuged and the pellet was resuspended in 0.25 to 0.5 ml of complete medium. After mixing equal volumes of cell suspension and trypan blue, viable cell counts were determined using a hemocytometer.
(§2) The number of tumor cells per 1 ml of packed microcapsules was determined as follows: a = ? where b = total number of tumor cells in the suspension, and c = total volume of microcapsules used for the preparation of this suspension.
(§3) By comparing the number of tumor cells in 1 ml of microcapsules derived from non-treated and drug-treated mice, the percent inhibition of tumor cell growth was calculated: [formula] where ac = number of tumor cells from the non-treated control microcapsules, and ae = number of tumor cells from the drug treated microcapsules.
Human T cell lymphoma (MOLT-4) cells were encapsulated according to the procedures described above and incubated in vitro in RPMI I640 medium supplemented with 10 percent fetal calf serum, glutamine and antibiotics for one hour of 37°C. During incubation they were exposed to various concentrations of 1,3-B (2-chloroethyl)-1-nitrosourea (BCNU), 5-fluorouracil (5-FU) and adriamycin. The microcapsules were then washed and implanted into the peritoneal cavity (i.p.) of C57BL/6 mice (Animal Production Area NCI-Frederick Cancer Research Facility) using #18-14 needles. After seven days the mice were sacrificed and their peritoneal cavities were washed with PBS and aspirated to collect the microcapsules in a Pasteur pipette. The microcapsules were washed several times from the host peritoneal cells. The microcapsules from the individual mice were counted by transferring them into wells of a 96 well microplate. Using an inverted microscope, the numbers of microcapsules in each well were counted. Each well was washed out and microcapsules were transferred into the glass homogenizer.
Microcapsules were then disrupted, and the suspension was filtered, centrifugated and reconstituted with PBS. The concentration and total number of cells were counted using a hemocytometer.

[2] = test system: MOLT-4 human lymphoma cells; experiment: In vivo sensitivity of encapsulated MOLT-4 cells in nude mice, NCI schedule; details: Adriamycin 6 mg/kg, 15 days after transplantation
Experimental: as §1, §2, §3
In the next experiment various drugs were administered in vivo according to schedules and doses typically used for screening antitumor effects of the drugs at the National Cancer Institute, Developmental Therapeutics program.
MOLT-4 human lymphoma cells were encapsulated and transplanted into peritoneum of nude mice. Doses of various drugs were applied i.v. at 1, 5 and 9 days after tumor cell transplantation.

[3] = test system: human colon adenocarcinoma (HT-29) cells; experiment: In vivo growth of encapsulated HT-29 cells in C57BL/6 mice
Experimental: as §1, §2, §3
A second human cancer cell line was also used to further analyze in vivo effects of different drugs on the growth of tumors. Encapsulated human colon adenocarcinoma (HT-29) cells were again transplanted into C57BL/6 mice and various drugs were administered after 3 days either by intravenous or by intraperitoneal injection. Animals were sacrificed after 4 days and number of cells per capsule were counted to calculate inhibition rates for the various treatment procedures. […] In fact, 5-FU is a preferred chemotherapeutic agent for patients with gastrointestinal malignancies.

human Melanoma LOX cells = experiment: In vivo susceptibility of encapsulated LOX melanoma cells in nude mice; details: for sensitivity of encapsulated LOX cells to the treatment (in words): i.v. days 1, 5, 9; for No. of viable tumor cells per 1 ml. of capsules: i.v. days 1, 5, 9, Adriamycin 6, BCNU 20, CY 100, 5-Fu 60 mg/kg
Experimental: as §1, §2, §3
In this series of experiments, cells of a fourth human cancer type, Melanoma LOX cells, were used. LOX cells have recently been proposed as the model for experimental treatment at the NCI Development Therapeutics Program. Following i.p. inoculation of the suspension of LOX Melanoma cells into nude mice, various drugs were administered i.v. and survival of the treated mice was determined (Schoemaker et al., Proceeding American Association for Cancer Research, 26, 1302, 1985) (mice transplanted with the non-encapsulated tumor cells were considered tumor-free if they survived during 3 months of observation). In parallel experiments encapsulated LOX Melanoma cells were transferred into nude mice and drugs were inoculated i.v. 1, 5 and 9 days at the dose and schedule utilized by the Dr. Shoemaker's procedure.

LOX Melanoma cells = details: i.v.; Adriamycin 6, BCNU 20, CY 100, 5-Fu 60 mg/kg; survival during 3 months of observation; nude mice; cited from earlier work
MOLT-4 lymphoma cells = experiment: In vivo inhibition of encapsulated Molt-4 lymphoma growth in C57BL/6 mice; parameters: species or system human
Experimental: as §1, §2, §3
MOLT-4 lymphoma cells were also used in an in vivo assay. As before, the MOLT-4 cells were encapsulated and transplanted i.p. into C57BL/6 mice. On day 1 following the transplantation of the encapsulated cells, the mice were treated i.v. intravenous (i.v.) with BCNU, adriamycin or cyclophosphamide (CY). This approach allowed the testing of cyclophosphamide (CY) which is inefficient in vitro because it must be metabolized to obtain an active cytotoxic derivative. Ten days after transplantation, the encapsulated cells were retrieved and the tumor cells contained therein were counted. […]

[4] = test system: human lung carcinoma A549 cells; experiment: In vivo susceptibility of encapsulated A549 cells; details: i.v. days 2, 5, 9; for No. of tumor cells per 1 ml of capsules / percent Inhibition: Adriamycin 6, BCNU 20, CY 100 mg/kg
Experimental: as §1, §2, §3
The sensitivity of human lung carcinoma A549 cells to the drugs was assessed 12 and 14 days after transplantation of encapsulated tumor cells. The treatments were applied i.v. 2, 5 and 9 days after microcapsule transplantation (Table 5).

Original P388 cells = experiment: In vivo growth of encapsulated original P388 lymphoma cells in nude mice; details: for inhibition at 100 mg/kg: Mus musculus, P388, iv
Experimental: as §1, §2, §3
(§4) Since drug-resistance is one of the most important causes of failure in chemotherapy, it is crucial that a predictive assay be able to distinguish between effective and non-effective drugs for particular tumors. […] One day later the mice received by i.v. administration Adriamycin (6 mg/kg), Vinblastin (1 mg/kg) or Cyclophosphamide (100 mg/kg). Five days after administration some of the mice were sacrificed, the microcapsules were recovered and the numbers of tumor cells inside the capsules were determined. The remaining mice received a second administration and the microcapsules were recovered from the remaining mice 3 days afterwards. The results are shown in Table 7 and correlate well with the known characteristics of P388 cell line and its variant.

P388 Resistant Cells = experiment: In vivo growth of encapsulated adriamycin-resistant P388 lymphoma cells in nude mice; details: for inhibition at 100 mg/kg: Mus musculus, P388, iv
Experimental: as §1, §2, §3, §4

[5] = 25 µg/ml in vitro for one hour, then 7 days i.p. in C57BL/6 mice
[6] = 100 µg/ml in vitro for one hour, then 7 days i.p. in C57BL/6 mice
[7] = Mus musculus, MOLT-4, iv, 360 h, i.v. days 1, 5, 9, Cyclophosphamide 100 mg/kg, 5-Fu 60 mg/kg, nude mice
[8] = i.v. days 1, 5, 9, Cyclophosphamide 100 mg/kg, 5-Fu 60 mg/kg, nude mice
[9] = Mus musculus, HT-29, ip, i.p. 3 days after transplantation, 5-Fu 150 mg/kg, CY 250 mg/kg, Adriamycin 20 mg/kg, 4 days
[10] = i.p. 3 days after transplantation, 5-Fu 150 mg/kg, CY 250 mg/kg, Adriamycin 20 mg/kg, 4 days
[11] = Mus musculus, MOLT-4, iv, i.v. on day 1, Adriamycin 10 mg/kg, BCNU 100 mg/kg, CY 200 mg/kg, capsules retrieved ten days after transplantation
[12] = i.v. on day 1, Adriamycin 10 mg/kg, BCNU 100 mg/kg, CY 200 mg/kg, capsules retrieved ten days after transplantation
[13] = 5 + 3 days after treatment (3 days after second administration), Adriamycin 6, Vinblastin 1, Cyclophosphamide 100 mg/kg i.v.
[14] = 5 days after treatment, i.v. one day after inoculation, Adriamycin 6, Vinblastin 1, Cyclophosphamide 100 mg/kg
[15] = 72 h, 5 + 3 days after treatment (3 days after second administration), Adriamycin 6, Vinblastin 1, Cyclophosphamide 100 mg/kg i.v.

Compound	No. of tumor cells per capsule [1, 5]	No. of tumor cells per capsule [1, 6]	No of viable tumor cells per 1 ml of capsules [2, 8]	No. of cells per capsule [3, 10]	Total No. of tumor cells [3, 10]	sensitivity of encapsulated LOX cells to the treatment (in words) (human Melanoma LOX cells)	No. of viable tumor cells per 1 ml. of capsules (human Melanoma LOX cells)	% survived mice transplanted with nonencapsulated tumor cells (LOX Melanoma cells) [%]	No. of cells per capsule (MOLT-4 lymphoma cells; [12])	Total No. of tumor cells (MOLT-4 lymphoma cells; [12])	No. of tumor cells per 1 ml of capsules ([4]; 12 days after transplantation)	percent Inhibition ([4]; 12 days after transplantation) [%]	No. of tumor cells per 1 ml of capsules ([4]; 14 days after transplantation)	percent Inhibition ([4]; 14 days after transplantation) [%]	No. cells/ml (Original P388 cells; [13])	No. cells/ml (Original P388 cells; [14])	No. cells/ml (P388 Resistant Cells; [13])	No. cells/ml (P388 Resistant Cells; [14])	further results
O=c1[nH]cc(F)c(=O)[nH]1 [5-Fu, 5-fluorouracil]	3 x 10^3	10^2	41.0 x 10^6	0.6 x 10^4	0.6 x 10^6	least efficient	29 x 10^5	0	–	–	–	–	–	–	–	–	–	–	inhibition at 25 µg/mL ([1]; Mus musculus, MOLT-4, ip, 25 µg/ml in vitro for one hour, then 7 days i.p. in C57BL/6 mice, read-out: % Inhibition): 40%; inhibition at 100 µg/mL ([1]; Mus musculus, MOLT-4, ip, 100 µg/ml in vitro for one hour, then 7 days i.p. in C57BL/6 mice, read-out: % Inhibition): 98%; inhibition of tumor cell proliferation (in words) ([2]; 5-FU 60 mg/kg i.v. days 1, 5, 9): significantly less efficient; inhibition at 60 mg/kg [2, 7]: 30%; inhibition at 150 mg/kg [3, 9]: 70%; sensitivity of encapsulated HT-29 cells (in words) ([3]; in vivo): more sensitive to 5-FU than to the other drugs tested
O=NN(CCCl)C(=O)NCCCl [BCNU, 1,3-B (2-chloroethyl)-1-nitrosourea]	1 x 10^4	0.1 x 10^4	–	–	–	most sensitive	2 x 10^5	50	1222	27 x 10^4	7.0 x 10^5	88	15.7 x 10^5	81	–	–	–	–	No. of tumor cells per capsule ([1]; 6 µg/ml in vitro for one hour, then 7 days i.p. in C57BL/6 mice): 1 x 10^4; inhibition at 6 µg/mL ([1]; Mus musculus, MOLT-4, ip): 86%; inhibition at 25 µg/mL ([1]; Mus musculus, MOLT-4, ip): 86%; inhibition at 100 µg/mL ([1]; Mus musculus, MOLT-4, ip): 98%; inhibition at 100 mg/kg (MOLT-4 lymphoma cells; [11]): 55%; reduction of the numbers of tumor cells (in words) [4]: more efficient in this respect than CY
O=P1(N(CCCl)CCCl)NCCCO1 (centres unmarked) [CY, cyclophosphamide]	–	–	1.9 x 10^6	1.6 x 10^4	1.1 x 10^6	most sensitive	0.7 x 10^5	40	171	10 x 10^4	13.5 x 10^5	78	39.0 x 10^5	53	1.3 x 10^6	0.4 x 10^6	1.1 x 10^6	0.4 x 10^6	inhibition at 200 mg/kg (MOLT-4 lymphoma cells; [11]): 93.7%; reduction of the number of viable tumor cells in the capsules (in words) (MOLT-4 lymphoma cells; i.v. on day 1, ten days after transplantation): more effective than BCNU; inhibition at 100 mg/kg [2, 7]: 97%; inhibition at 250 mg/kg [3, 9]: 20%; inhibition at 100 mg/kg (Original P388 cells; [15]): 97%; inhibition at 100 mg/kg (Original P388 cells; [14]): 98%; inhibition at 100 mg/kg (P388 Resistant Cells; [15]): 96%; inhibition at 100 mg/kg (P388 Resistant Cells; Cyclophosphamide 100 mg/kg i.v., both time points): 96 to 98%; inhibition at 100 mg/kg (P388 Resistant Cells; [14]): 98%
CCC1(O)CC2CN(CCc3c([nH]c4ccccc34)C(C(=O)OC)(c3cc4c(cc3OC)N(C)C3C(O)(C(=O)OC)C(OC(C)=O)C5(CC)C=CCN6CCC43C65)C2)C1 (centres unmarked) [Vinblastin]	–	–	–	–	–	–	–	–	–	–	–	–	–	–	6 x 10^6	9 x 10^6	23 x 10^6	15 x 10^6	% Inhibition (Original P388 cells; [13]): 89%; % Inhibition (Original P388 cells; [14]): 60%; % Inhibition (P388 Resistant Cells; [13]): 21%; % Inhibition (P388 Resistant Cells; [14]): 12%; inhibiting the growth of the drug-resistant variant (in words) (P388 Resistant Cells; Adriamycin 6 mg/kg, Vinblastin 1 mg/kg i.v.): Neither Adriamycin nor Vinblastin in the doses administered was effective
